According to patent US9808448B2, “Pharmaceutical compounds and use of same in cancer and tauopathies” (THE REGENTS OF THE UNIVERSITY OF MICHIGAN, priority 2013, dated 2017):
“And” between values parts separate entries of the source, which are not always exact repeats. Equal values may be shown once. Read-outs that look alike come from different tables or passages of the source.

How the values were obtained:
Hsp72 (HSPA1) = molecular target: T1, Hsp72 (HSPA1) (Homo sapiens, UniProt P0DMV8); assay: Biolayer interferometry (Octet Red), Hsp72; assay type: binding; settings: immobilized full length Hsp72
T1 construct: Biotinylated human Hsc70NBD or full length Hsp72 were first immobilized; made in house
Method: (§1) Binding of MKT-077 analogs to immobilized Hsp70 was evaluated using a competitive ELISA. In this established assay, a biotinylated version of MKT-077 is bound to immobilized human Hsc70 (HSPA8) and potential competitors are tested for their ability to block the interaction. […] As further controls, the truncated compounds YM-02, YM-03, YM-04 and YM-07 were tested.
(§2) Biotinylated human Hsc70NBD or full length Hsp72 were first immobilized on super streptavidin biosensors (ForteBio, 18-5057) as follows: biosensors were soaked with MG buffer (100 mM Tris base, 20 mM KCl, 6 mM MgCl2, 0.01% Triton X-100, pH 7.4) for 10 min before moving them to wells either containing 200 μL […] biotinylated proteins or […] biocytin for 60 min. The free streptavidin sites were subsequently quenched with […] biocytin for 10 min. The biosensors were washed with MG buffer for 5 min prior to beginning the binding experiments. The association and disassociation steps were carried out in MG buffer with a constant 10% DMSO concentration. All steps were performed at room temperature and with 1000 rpm rotary shaking. […] The apparent affinities of YM-08 for Hsc70NBD and Hsp72 were calculated from both equilibrium measurements and global fits of the kon and koff values, yielding similar values.

[1] = Initial pharmacokinetics and biodistribution in CD1 mice; assay type: in vivo, mouse; settings: i.v., YM-01 20 mg/kg saline, YM-08 10 mg/kg 10% DMSO/saline
Method: (A) Initial pharmacokinetics and biodistribution of YM-01 and YM-08. Compounds were suspended in buffered saline (YM-01) or 10% DMSO/saline (YM-08) and injected at 20 and 10 mg/kg, respectively. YM-08 was not soluble in saline or 10% DMSO/saline at 20 mg/kg. The levels of YM-08 in the brain at 1 hr after injection could not be accurately determined because its value was outside the calibration curve. […] Results are average from data acquired from three female mice. (C) YM-08 maintains a B/P ratio of nearly 0.25 for 18 hrs.
(§3) The initial pharmacokinetics (PK) of YM-01 and YM-08 were tested in CD1 mice. […] After a single 6.6 mg/kg dose delivered i.v., the peak brain concentration of YM-08 was 4 μg/g (FIG. 7B) and the ratio in the brain:plasma (B/P) ratio was approximately 0.25 for 18 hrs (FIG. 7C). […] It is not yet clear how much tau levels need to be reduced to achieve therapeutic effects in disease models, but the area-under-the-curve (AUCinf) for YM-08 in the brain was 0.26 μg·hr/g and the AUCinf in plasma was 13.6 μg·hr/mL.

MEF (C57BL/6) = assay: Cell survival, MEF; assay type: cell-based; settings: Mus musculus; tau activity screen table; read-out: MEF IC50
[2] = system: MCF-7, MCF-10A and MB-MDA-231 cells; assay: MTT assays, three cell lines; assay type: cell-based; settings: range over MCF-7, MCF-10A and MB-MDA-231 cells
Method: YM-08 was tested whether it might retain the anti-cancer activity of MKT-077.

[3] = system: phospho- and total tau in brain slices from transgenic P301L tau mice (Tg4510); assay: Tau levels in transgenic brain slice cultures; assay type: cell-based, mouse; settings: 30 and 100 μM, 6 hours
Method: YM-08 activity in a more physiological system was tested. Brain slice cultures from transgenic mice that express mutated tau were treated for 6 hours with YM-08 and the levels of total- and pS396/404 tau measured by Western blots. […] To test whether YM-08 might selectively reduce tau after microtubule disruption, brain slices were cultured from wild type mice and treated them with YM-08 plus the microtubule destabilizer, nocodazole. […] Together, these studies add to growing evidence that Hsp70 selectively identifies tau variants that are not associated with the normal microtubule network, likely minimizing their aggregation and proteotoxicity.

human Hsc70NBD = molecular target: T2, human Hsc70NBD (Homo sapiens, UniProt P11142); assay: Biolayer interferometry (Octet Red), Hsc70NBD; assay type: binding; settings: immobilized biotinylated Hsc70NBD
T2 construct: made in house
Method: as §1, §2

[4] = Pharmacokinetics of YM-08 in plasma and brain, CD1 mice; assay type: in vivo, mouse
Method: as §3
Female CD-1 mice (25-30 g in body weight) were purchased from Charles River Laboratories (Wilmington, Mass.). Mice were treated with 6 mg/kg YM-08 through the tail-vein injection. The plasma and brain were collected at 0.016, 0.08, 0.16, 0.25, 0.5, 1, 2, 4, 6, 13, 18, 24 and 48 h after drug administration. Whole blood samples were drawn through the cardiac puncture using a heparinized syringe with a 22 gauge needle, followed by centrifugation at 3,000 g for 10 min at 4° C. to obtain plasma. Collected tissues were washed with PBS, immediately frozen using liquid nitrogen, and stored at −80° C. until further analysis. Tissue homogenates were prepared by adding PBS (1:5 w/v, homogenate/PBS) and homogenization for 3 min. Compound was extracted from 100 μL of sample by adding 300 μL of acetonitrile containing 50 ng/mL IS, followed by vortexing for 3 min. The supernatant was collected and subjected to LC-MS/MS analysis.
The separation of YM-08 and internal standard was performed using Agilent 1200 HPLC system (Agilent Technologies, Santa Clara, Calif.) and Zobarx SB-C18 column (2.1×50 mm, 3.5 μm) (Agilent Technologies). […] The compounds were eluted with an fixed gradient of 20% solvent A and 80% of solvent B. Solvent A consisted of 0.1% (v/v) glacial acetic acid in water and solvent B consisted of 0.1% (v/v) glacial acetic acid in acetonitrile. After injecting 10 μl of samples into HPLC system, the elution was performed over 2 min at a flow rate of 0.4 ml/min. The YM-08 and MKT-077 eluents were detected using QTRAP 3200 mass spectrometer (Applied Biosystems/MDS Sciex, Foster City, Calif.) equipped with an electrospray ionization source (ESI). The temperature of ESI was set at 650° C. and curtain gas, gas 1, and gas 2 were set to 30, 50, and 50 units, respectively. A positive voltage at 5500 V was applied through ESI to convert the eluents to ions in the form of MH+. The ions were detected using a MRM mode. The ion transitions from the precursor ion (m/z 368) to the fragment ion (m/z=222) and from the precursor ion (m/z 396) to the fragment ion (m/z=175) were used to detect YM-08 and IS, respectively.

T2 sequence (P11142 2-386 limits assumed): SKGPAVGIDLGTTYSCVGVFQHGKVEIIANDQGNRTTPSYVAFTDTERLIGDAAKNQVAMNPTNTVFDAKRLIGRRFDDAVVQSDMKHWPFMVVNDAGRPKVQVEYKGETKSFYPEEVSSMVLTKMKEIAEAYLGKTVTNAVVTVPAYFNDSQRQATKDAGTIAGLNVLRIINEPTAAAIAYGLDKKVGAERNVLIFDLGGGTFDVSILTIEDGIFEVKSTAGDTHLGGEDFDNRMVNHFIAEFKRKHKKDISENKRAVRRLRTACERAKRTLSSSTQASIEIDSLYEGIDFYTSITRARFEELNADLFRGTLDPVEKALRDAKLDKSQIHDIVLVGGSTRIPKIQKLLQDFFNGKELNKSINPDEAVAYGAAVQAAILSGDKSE
T1 sequence (P0DMV8 whole entry): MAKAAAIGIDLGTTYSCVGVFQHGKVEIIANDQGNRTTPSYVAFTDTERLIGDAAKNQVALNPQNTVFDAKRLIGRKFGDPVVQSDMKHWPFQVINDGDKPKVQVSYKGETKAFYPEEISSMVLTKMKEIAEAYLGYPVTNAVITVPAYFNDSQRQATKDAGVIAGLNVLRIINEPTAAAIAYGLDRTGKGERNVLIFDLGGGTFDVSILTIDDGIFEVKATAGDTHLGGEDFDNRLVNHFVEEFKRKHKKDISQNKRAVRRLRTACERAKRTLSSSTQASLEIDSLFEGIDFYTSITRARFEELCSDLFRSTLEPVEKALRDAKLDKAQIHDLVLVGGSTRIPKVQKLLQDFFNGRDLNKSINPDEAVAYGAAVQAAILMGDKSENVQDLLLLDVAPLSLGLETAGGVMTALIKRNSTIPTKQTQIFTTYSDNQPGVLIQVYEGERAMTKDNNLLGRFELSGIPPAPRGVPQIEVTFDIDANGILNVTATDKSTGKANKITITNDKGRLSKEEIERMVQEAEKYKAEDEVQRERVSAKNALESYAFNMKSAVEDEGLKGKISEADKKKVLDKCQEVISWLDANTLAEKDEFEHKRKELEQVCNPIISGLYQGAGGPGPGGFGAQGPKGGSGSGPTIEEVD

With CCn1c(=O)/c(=C2\Sc3ccccc3N2C)s/c1=C\c1ccccn1 [YM-08, (2Z,5E)-3-ethyl-5-(3-methylbenzo[d]thiazol-2(3H)-ylidene)-2-(pyridin-2-ylmethylene)thiazolidin-4-one] the Kd (Hsp72 (HSPA1)) was about 2 µM, the kidney distribution ([1]; 0.16 and 1 hrs) was “reduced retention in the kidney” and the brain penetration ([1]; 0.16 hrs) was “abundant in the brain”. The IC50 (MEF (C57BL/6)) was 4.2 ± 0.24 µM, the EC50 [2] was 7.8 to 10.5 µM and the phospho-tau level [3] was “reduced phospho-tau”. For the same compound, the Kd (human Hsc70NBD) was ~2.3 µM and ~4 µM, the “AUCinf in the brain” value ([4]; 6.6 mg/kg i.v.) was 0.26 µg·h/g and the half-life ([4]; female, CD-1, mouse, brain, iv, 6.6 mg/kg i.v., read-out: terminal halftime in the brain (t1/2; brain) (converted)) was 6.8 h. The Kp at 18 h ([4]; female, CD-1, mouse, brain/plasma, iv, 6.6 mg/kg, 6.6 mg/kg i.v., for 18 hrs, read-out: brain:plasma (B/P) ratio) was about 0.25, the AUC(0-inf) ([4]; female, CD-1, mouse, plasma, iv, 6.6 mg/kg i.v., read-out: AUCinf in plasma) was 13600 ng·h/mL and the half-life ([4]; female, CD-1, mouse, plasma, iv, 6.6 mg/kg i.v., read-out: t1/2, plasma (converted)) was 9.8 h. For the same compound, the peak brain concentration ([4]; single 6.6 mg/kg i.v., Cremophor mixture) was 4 µg/g.
